One assay has as its target T1, Serine protease 1 (Bos taurus, UniProt P00760).
T1 sequence (P00760 whole entry): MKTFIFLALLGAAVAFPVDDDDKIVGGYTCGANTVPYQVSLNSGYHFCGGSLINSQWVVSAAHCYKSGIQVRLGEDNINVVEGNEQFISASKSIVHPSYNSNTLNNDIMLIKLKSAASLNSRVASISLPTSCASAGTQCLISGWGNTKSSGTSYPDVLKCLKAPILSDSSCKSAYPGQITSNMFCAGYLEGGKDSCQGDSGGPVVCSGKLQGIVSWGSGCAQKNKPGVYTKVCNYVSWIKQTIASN
The assay can be described thus: TF-FVIIa Enzyme Inhibition Assay. The following applies: 25 °C.

The target of the next assay is T2, Coagulation factor VII (Homo sapiens, UniProt P08709).
T2 sequence (P08709 whole entry): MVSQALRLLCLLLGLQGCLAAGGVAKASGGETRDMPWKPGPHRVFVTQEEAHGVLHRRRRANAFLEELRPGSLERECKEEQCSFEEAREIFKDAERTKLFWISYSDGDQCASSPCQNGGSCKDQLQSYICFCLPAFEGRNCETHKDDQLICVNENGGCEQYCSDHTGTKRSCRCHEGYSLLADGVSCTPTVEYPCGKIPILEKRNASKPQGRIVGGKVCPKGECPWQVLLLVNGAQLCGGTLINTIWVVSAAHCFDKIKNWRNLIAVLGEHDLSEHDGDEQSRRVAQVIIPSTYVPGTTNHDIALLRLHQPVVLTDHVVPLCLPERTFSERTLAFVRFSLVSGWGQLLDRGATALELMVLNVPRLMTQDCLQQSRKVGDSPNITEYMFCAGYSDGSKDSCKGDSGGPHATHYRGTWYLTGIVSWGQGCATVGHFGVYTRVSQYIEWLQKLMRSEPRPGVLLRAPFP
In words: TF-FVIIa Enzyme Inhibition Assay.

Each structure is given as a SMILES string.

This is an account of results in BindingDB's records for doi:10.1016/j.bmc.2009.04.013 (Biocryst Pharmaceuticals, 2009).

As a reminder, the IC50 is the concentration that gives 50% inhibition. Low readings indicate greater potency in that assay, high ones weaker potency in that assay. The compound `CC(C)=CCc1ccc(-c2ccc(C(=O)NCC(C)C)cc2C(=O)O)c(C(=O)Nc2ccc(C(=N)N)cc2)c1` [substituted biphenyl derivative, 36k] had an IC50 against Serine protease 1 of 950 nM.

At Serine protease 1, `CC(C)CNC(=O)c1ccc(-c2ccc(O)cc2C(=O)Nc2ccc(C(=N)N)cc2)c(C(=O)O)c1` [substituted biphenyl derivative, 36a] gave an IC50 of 390 nM.

With `C=C(CO)c1ccc(-c2ccc(C(=O)NCC(C)C)cc2C(=O)O)c(C(=O)Nc2ccc(C(=N)N)cc2)c1` [substituted biphenyl derivative, 36n], half-maximal inhibition against Serine protease 1 (IC50) required 3540 nM. This IC50 lies about 9.1-fold higher than the previous one.

Consider `CC(C)CNC(=O)c1ccc(-c2ccc(Cc3ccccc3)cc2C(=O)Nc2ccc(C(=N)N)cc2)c(C(=O)O)c1` [substituted biphenyl derivative, 36w], for which, at Serine protease 1, the IC50 is 570 nM.

`CC(C)CNC(=O)c1ccc(-c2ccc(-c3ccncc3)cc2C(=O)Nc2ccc(C(=N)N)cc2)c(C(=O)O)c1` [substituted biphenyl derivative, 36x] gave an IC50 against Serine protease 1 of 1210 nM.

On Serine protease 1, `CC(C)CNC(=O)c1ccc(-c2ccc(-c3cscc3CN=[N+]=[N-])cc2C(=O)Nc2ccc(C(=N)N)cc2)c(C(=O)O)c1` [substituted biphenyl derivative, 36am] showed an IC50 of 1180 nM. This IC50 and that of the compound before are within 1.5-fold of each other.

With `CC(C)CNC(=O)c1ccc(-c2ccc(-c3ccoc3CO)cc2C(=O)Nc2ccc(C(=N)N)cc2)c(C(=O)O)c1` [substituted biphenyl derivative, 36ao], inhibition against Serine protease 1 was half-maximal at 740 nM (IC50). This IC50 is about 1.6-fold lower than that of the compound before.

Compound `C=Cc1ccc(-c2ccc(C(=O)NCC(C)C)cc2C(=O)O)c(C(=O)Nc2ccc(C(=N)N)cc2)c1` [substituted biphenyl derivative, 36b] came in with a concentration for half-maximal inhibition (IC50) against Serine protease 1 of 470 nM.

For `C=C(CCO)c1ccc(-c2ccc(C(=O)NCC(C)C)cc2C(=O)O)c(C(=O)Nc2ccc(C(=N)N)cc2)c1` [substituted biphenyl derivative, 36o], 2190 nM corresponded to half-maximal inhibition on Serine protease 1 (IC50).

In turn, `N=C(N)c1ccc(NC(=O)c2ccccc2-c2ccccc2C(=O)O)cc1` [substituted biphenyl derivative, 9] yielded an IC50 on Coagulation factor VII (25 °C) of 5720 nM.

With `C#Cc1ccc(-c2ccc(C(=O)NCC(C)C)cc2C(=O)O)c(C(=O)Nc2ccc(C(=N)N)cc2)c1` [substituted biphenyl derivative, 36f], on Serine protease 1, the IC50 is 2870 nM.

As to `CC(C)CNC(=O)c1ccc(-c2ccc(-c3cocc3CO)cc2C(=O)Nc2ccc(C(=N)N)cc2)c(C(=O)O)c1` [substituted biphenyl derivative, 36ap], on Serine protease 1, the IC50 amounted to 2290 nM.

Take `CC(C)CNC(=O)c1ccc(-c2ccc(-c3ccsc3CO)cc2C(=O)Nc2ccc(C(=N)N)cc2)c(C(=O)O)c1` [substituted biphenyl derivative, 36ai]: the midpoint of inhibition at Serine protease 1, the IC50, lay at 3040 nM.

`CC(C)CNC(=O)c1ccc(-c2ccc(-c3sccc3CO)cc2C(=O)Nc2ccc(C(=N)N)cc2)c(C(=O)O)c1` [substituted biphenyl derivative, 36aj]: at Serine protease 1, 4390 nM corresponded to half-maximal inhibition (IC50).

Consider `C/C=C\Cc1ccc(-c2ccc(C(=O)NCC(C)C)cc2C(=O)O)c(C(=O)Nc2ccc(C(=N)N)cc2)c1` [substituted biphenyl derivative, 36j], for which, at Serine protease 1, the IC50 was determined as 1340 nM.

In turn, `CC(C)CNC(=O)c1ccc(-c2ccc(-c3ccoc3)cc2C(=O)Nc2ccc(C(=N)N)cc2)c(C(=O)O)c1` [substituted biphenyl derivative, 36ac] had an IC50 against Serine protease 1 of 470 nM.

Compound `C=C=Cc1ccc(-c2ccc(C(=O)NCC(C)C)cc2C(=O)O)c(C(=O)Nc2ccc(C(=N)N)cc2)c1` [substituted biphenyl derivative, 36h] registered an IC50 against Serine protease 1 of 560 nM.

`CC(C)CNC(=O)c1ccc(-c2ccc(/C=C\CO)cc2C(=O)Nc2ccc(C(=N)N)cc2)c(C(=O)O)c1` [substituted biphenyl derivative, 36m]: the IC50 on Coagulation factor VII (pH 7.2, 23 °C) was determined as 52 nM; against Serine protease 1 it was 1770 nM.

`CC(C)CNC(=O)c1ccc(-c2ccc(-c3cccn3C)cc2C(=O)Nc2ccc(C(=N)N)cc2)c(C(=O)O)c1` [substituted biphenyl derivative, 36ae] registered an IC50 against Serine protease 1 of 410 nM.

As to `CC(C)CNC(=O)c1ccc(-c2ccc(-c3ccsc3)cc2C(=O)Nc2ccc(C(=N)N)cc2)c(C(=O)O)c1` [substituted biphenyl derivative, 36aa], the IC50 against Serine protease 1 was 380 nM.

On Serine protease 1, `CC(C)CNC(=O)c1ccc(-c2ccc(-c3nccs3)cc2C(=O)Nc2ccc(C(=N)N)cc2)c(C(=O)O)c1` [substituted biphenyl derivative, 36af] returned an IC50 of 1470 nM.

Regarding `CC#Cc1ccc(-c2ccc(C(=O)NCC(C)C)cc2C(=O)O)c(C(=O)Nc2ccc(C(=N)N)cc2)c1` [substituted biphenyl derivative, 36i], the IC50 against Serine protease 1 turned out to be 1660 nM.

As to `CCc1ccc(-c2ccc(C(=O)NCC(C)C)cc2C(=O)O)c(C(=O)Nc2ccc(C(=N)N)cc2)c1` [substituted biphenyl derivative, 36c], on Serine protease 1, half-maximal inhibition (IC50) was put at 5990 nM.

On to `CC(C)CNC(=O)c1ccc(-c2ccc(-c3occc3CO)cc2C(=O)Nc2ccc(C(=N)N)cc2)c(C(=O)O)c1` [substituted biphenyl derivative, 36aq], for which, on Serine protease 1, the IC50 amounted to 770 nM.

The compound `CC(C)CNC(=O)c1ccc(-c2ccc(-c3ccco3)cc2C(=O)Nc2ccc(C(=N)N)cc2)c(C(=O)O)c1` [substituted biphenyl derivative, 36ab] returned an IC50 against Serine protease 1 of 370 nM. Against the preceding compound, the IC50 is about 2.1-fold lower.

`CC(C)CNC(=O)c1ccc(-c2ccc(-c3ccc[nH]3)cc2C(=O)Nc2ccc(C(=N)N)cc2)c(C(=O)O)c1` [substituted biphenyl derivative, 36ad] returned an IC50 against Serine protease 1 of 430 nM.

As for `CC(C)CNC(=O)c1ccc(-c2ccc(C(O)CO)cc2C(=O)Nc2ccc(C(=N)N)cc2)c(C(=O)O)c1` (stereo not drawn) [substituted biphenyl derivative, 36s], the IC50 against Serine protease 1 worked out at 22100 nM.

For the compound `CC(C)CNC(=O)c1ccc(-c2ccc(Cc3cccs3)cc2C(=O)Nc2ccc(C(=N)N)cc2)c(C(=O)O)c1` [substituted biphenyl derivative, 36ag], the IC50 against Serine protease 1 worked out at 1510 nM.

As for `CC(C)CNC(=O)c1ccc(-c2ccc(-c3cccs3)cc2C(=O)Nc2ccc(C(=N)N)cc2)c(C(=O)O)c1` [substituted biphenyl derivative, 36z], at Serine protease 1, the IC50 was determined as 240 nM.

Take `CC(C)CNC(=O)c1ccc(-c2ccc(-c3cscc3CN)cc2C(=O)Nc2ccc(C(=N)N)cc2)c(C(=O)O)c1` [substituted biphenyl derivative, 36an]: on Serine protease 1, the IC50 was 1770 nM.

At Serine protease 1, `CC(C)CNC(=O)c1ccc(-c2ccc(C#CCCO)cc2C(=O)Nc2ccc(C(=N)N)cc2)c(C(=O)O)c1` [substituted biphenyl derivative, 36q] came in with an IC50 of 400 nM.

The compound `C=C(C)c1ccc(-c2ccc(C(=O)NCC(C)C)cc2C(=O)O)c(C(=O)Nc2ccc(C(=N)N)cc2)c1` [substituted biphenyl derivative, 36g] came in with an IC50 at Serine protease 1 of 530 nM. The IC50 values of the last two compounds are within 1.5-fold of each other.

Consider `COc1ccc(-c2ccc(C(=O)NCC(C)C)cc2C(=O)O)c(C(=O)Nc2ccc(C(=N)N)cc2)c1` [substituted biphenyl derivative, 24], for which the IC50 on Serine protease 1 was determined as 820 nM.

`CC(C)CNC(=O)c1ccc(-c2ccc(-c3cscc3CO)cc2C(=O)Nc2ccc(C(=N)N)cc2)c(C(=O)O)c1` [substituted biphenyl derivative, 36ak]: on Serine protease 1, the IC50 was 510 nM.

In the case of `CC(C)CNC(=O)c1ccc(-c2ccc(-c3cccnc3)cc2C(=O)Nc2ccc(C(=N)N)cc2)c(C(=O)O)c1` [substituted biphenyl derivative, 36y], the IC50 against Serine protease 1 was found to be 3020 nM. This IC50 lies about 5.9-fold higher than the previous one.

Regarding `CC(C)CNC(=O)c1ccc(-c2ccc(-c3ccccc3)cc2C(=O)Nc2ccc(C(=N)N)cc2)c(C(=O)O)c1` [substituted biphenyl derivative, 36v], the IC50 at Serine protease 1 turned out to be 420 nM.

`CC(C)CNC(=O)c1ccc(-c2ccccc2C(=O)Nc2ccc(C(=N)N)cc2)c(C(=O)O)c1`: the half-maximal inhibitory concentration (IC50) on Serine protease 1 amounted to 170 nM.
